Measurements published in patent publication US20190328721A1, “METHOD OF ACTIVATING DENDRITIC CELLS” (KOREA INSTITUTE OF SCIENCE AND TECHNOLOGY, priority 2018, published 2019).

Key:
[1] = tested on: bone marrow-derived dendritic cells (BMDC); assay: Cross presentation of H-2Kb-Ova by BMDCs in vitro; type: cell-based, mice; settings: Y27632 30 μM, 1 hour on BMDCs; cancer cells doxorubicin treated or untreated
Method: Furthermore, the inventors investigated whether the cross presentation of dendritic cells was promoted by the combination treatment of doxorubicin and Y27632. To this end, the present inventors used 30 μM of Y27632 to pretreat bone marrow-derived dendritic cells (BMDC) stained with CellTracker CMFDA (Thermo Fisher Scientific, USA) for 1 hour, followed by treatment with doxorubicin treated B16F10-Ova cells or doxorubicin untreated B16F10-Ova cells. After the co-culture, floating cancer cells were removed by withdrawing supernatant. Cross presentation activity, which is one of functions of dendritic cells, was analyzed via flow cytometry analysis using an antibody capable of detect a cancer antigen (H-2K^b-Ova) capable of activating T cells, through flow cytometry analysis using an antibody (H-2K^b monoclonal antibody, Invitrogen, USA).

B16F10-Ova = B16F10-Ova tumor model, Y27632 combined with a chemotherapeutic; type: in vivo, mice; settings: doxorubicin 5 mg/kg, Y27632 10 mg/kg
Method: Specifically, tumor suppression was examined by administering 5 mg/kg of doxorubicin and 10 mg/kg of Y27632 alone or in combination to B16F10-Ova-bearing tumor model mice prepared as in Example 2-1. Doxorubicin was administered three times at intervals of 3 days from the 8th day after the injection of cancer cells, and Y27632 was administered at a dose of 10 mg/kg continuously for two consecutive days via intravenous injection followed by a day of rest as a cycle, followed by 3 cycles of 3-day intervals (FIG. 18A). The mice were sacrificed on the 20th day after the injection of cancer cells, the tumor tissue was excised, and ex vivo images were taken and the tumor tissues were weighed. Before the sacrifice of the mice, the tumor volumes over time were calculated as described above using calipers at intervals of 3 days from the 8th day after the injection of the cancer cells.
In order to confirm whether CD8^+ T cells infiltrates into tumor tissues, tumor tissues excised from an experimental animal were sectioned and subjected to fluorescence immunohistochemistry using anti-CD8 antibodies.
First, to determine the cisplatin therapeutic concentration, a B16F10-Ova tumor model was constructed in a nude mouse lacking T cell immunity and then an experiment was conducted to confirm the concentration of cisplatin having an anticancer effect similar to that of doxorubicin at 5 mg/kg. […] Thus, in order to evaluate the therapeutic effect of cisplatin and the ROCK inhibitor Y27632 in the B16F10-Ova-bearing tumor model, 3 mg/kg of cisplatin was administered according to the administration schedule shown in FIG. 18A.

OT-1 T cells = assay: Co-culture of OT-1 T cells with phagocytes isolated from B16F10-Ova-bearing mice (IFN-γ); type: in vivo
Method: In addition, the expression of IFN-γ in OT-1 T cells co-cultured with macrophages and dendritic cells isolated from the tumor-draining lymph nodes and the tumor tissues in the B16F10-Ova cancer model mice was assessed using IFN-γ ELISA kit (R&D Systems, Inc, USA). It was confirmed that the amount of IFN-γ was increased when the dendritic cells isolated from the tumor-draining lymph nodes and the tumor tissues were co-cultured with OT-1 T cells (FIG. 14D). However, there was no change in the amount of IFN-γ when macrophages and OT-1 T cells were co-cultured.
The present inventors investigated whether the combined administration of Y27632 and doxorubicin induces immunity enhancement through CD8 T cells. For this purpose, dendritic cells isolated from tumor-draining lymph nodes of B16F10-Ova-bearing cancer model mice were co-cultured with OT-1 T cells, and then the amount of IFN-γ was measured by IFN-γ ELISA kit (R&D Systems, USA). […] In addition, it was confirmed that the amount of IFN-γ-positive T cells increased when the dendritic cells derived from mice administered with the combined administration were co-cultured with OT-1 T cells (FIG. 18G).

CT26.CL25 cancer cells = assay: CT26.CL25 tumor model; type: in vivo, Balb/c wild type mice; settings: 10 mg/kg intravenous
Method: (§1) CT26.CL25 cancer cells (1×10^6) expressing β-galactosidase were subcutaneously injected into the left back of a Balb/c wild type mice to generate a tumor model Similarly, an […] tumor model was prepared by subcutaneously injecting melanoma cell line B16F10-Ova cells (5×10^5) into the left back of C57L/B6 wild-type mice to induce cancer.
(§2) In the case of the CT26.CL25 cancer cell line, 6 days after the injection of the cancer cells, and in the case of B 16F10-Ova, 9 days after the injection of the cancer cells, Y27632 was administered by intravenous injection at a dose of 10 mg/kg as indicated in FIG. 8a. In the case of the CT26.CL25 model, the mice were sacrificed on the 22nd day after the injection of the cancer cells and in the case of the B16F10-Ova cancer model, the mice were sacrificed on the 20th day after the injection of the cancer cells (FIG. 8A). As a negative control, phosphate-buffered saline was administered instead of Y27632.
(§3) The tumor tissues of the mice were excised, an ex vivo image was taken and the tumor tissue were weighed (FIG. 8B). In addition, before the mice were sacrificed, changes in body weights were measured at intervals of 3 days from the 6th day of the cancer cell injection in the CT26.CL25 cancer model and at intervals of 3 days from the 9th day in the B16F10-Ova cancer model (FIG. 8c). Length (L) and width (W) of the tumor tissues were measured, and the volume of the tumor tissues over time was calculated using the following formula (FIGS. 8D and 8E):
(§4) The volume of tumor tissue (V[mm^3])=(L[mm])[…] (W[mm])^2×0.5.

B16F10-Ova cells = assay: B16F10-Ova tumor model; type: in vivo, C57L/B6 wild-type mice; settings: 10 mg/kg intravenous
Method: as §1, §2, §3, §4

[2] = from tumor-draining lymph nodes

C[C@@H](N)[C@H]1CC[C@H](C(=O)Nc2ccncc2)CC1 [Y27632]
cross presentation (H-2Kb-Ova) of BMDCs co-cultured with B16F10-Ova cells [1]: increased the cross-presentation | complete regression of the tumor (B16F10-Ova): not observed | infiltration of CD8+ T cells into tumor tissues (B16F10-Ova): slight infiltration | amount of IFN-γ, dendritic cells co-cultured with OT-1 T cells (OT-1 T cells; dendritic cells from tumor-draining lymph nodes and tumor tissues): increased | T cell priming (amount of IFN-γ), dendritic cells co-cultured with OT-1 T cells (OT-1 T cells; dendritic cells from tumor-draining lymph nodes, doxorubicin study): increased | proportion of IFN-γ-positive T cells, dendritic cells co-cultured (OT-1 T cells; [2]): increased | proportion of IFN-γ-positive T cells, macrophages co-cultured (OT-1 T cells; [2]): did not affect | amount of IFN-γ, macrophages co-cultured with OT-1 T cells (OT-1 T cells; mouse, in vivo): no change | body weight of the mice (CT26.CL25 cancer cells): no significant change | volume of the tumors (CT26.CL25 cancer cells): significantly decreased | weight of the tumors (CT26.CL25 cancer cells; day 22): significantly decreased | body weight of the mice (B16F10-Ova cells): no significant change | volume of the tumors (B16F10-Ova cells): significantly decreased | weight of the tumors (B16F10-Ova cells; day 20): significantly decreased
